From the supplement of paper PMC10307832

Columns and labels:
Assay in all cases: relative viability (nuclei count vs DMSO), 5 days (fraction); higher = more cells survive
[1] = compound: CC1=CC(=CC=C1)NC2=NC(=CS2)C3=CC=NC=C3 + Cc1cc(Nc2cc(N3CCN(C)CC3)nc(Sc3ccc(NC(=O)C4CC4)cc3)n2)n[nH]1 [Tozasertib] (partner 0.1 µM)
In short: (§1)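 A single step with final 0.05% Triton X-100, 1% formaldehyde and 1 ug/ml Hoechst fixed the cells and stained nuclei 5 days after treatment. Lung cancer cell lines in 1536-well plates had been treated by pin tool the day after seeding with one drug alone or a fixed anchor-drug dose plus five library-drug doses (not always all listed) in √10 steps, and nuclei were counted on 4× images. Relative viability is the ratio of nuclei in treated wells to nuclei in vehicle wells, taken as the median of duplicate plates.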

[2] = compound: CC1=CC(=CC=C1)NC2=NC(=CS2)C3=CC=NC=C3 + N=C(N)NC(=N)NCCc1ccccc1 [Phenformin] (partner 250 µM)
In short: as §1

[3] = compound: Cc1ccc(NC(=O)c2ccc(CN3CCN(C)CC3)cc2)cc1Nc1nc(-c2cccnc2)cs1 [Masitinib] + CC(C)C[C@H](NC(=O)[C@H](Cc1ccccc1)NC(=O)c1cnccn1)B(O)O [Bortezomib] (partner 0.002 µM)
In short: as §1

[4] = compound: Cc1ccc(NC(=O)c2ccc(CN3CCN(C)CC3)cc2)cc1Nc1nc(-c2cccnc2)cs1 [Masitinib] + CS(=O)(=O)CCNCc1ccc(-c2ccc3ncnc(Nc4ccc(OCc5cccc(F)c5)c(Cl)c4)c3c2)o1 [Lapatinib] (partner 2 µM)
In short: as §1

Cell Line	relative viability ([1]; first compound 0.08 µM)	relative viability ([1]; first compound 0.253 µM)	relative viability ([1]; first compound 0.8 µM)	relative viability ([1]; first compound 2.53 µM)	relative viability ([1]; first compound 8 µM)	relative viability ([2]; first compound 0.08 µM)	relative viability ([2]; first compound 0.253 µM)	relative viability ([2]; first compound 0.8 µM)	relative viability ([2]; first compound 2.53 µM)	relative viability ([2]; first compound 8 µM)	relative viability ([3]; first compound 0.01 µM)	relative viability ([3]; first compound 0.03162 µM)	relative viability ([3]; first compound 0.1 µM)	relative viability ([3]; first compound 0.3162 µM)	relative viability ([3]; first compound 1 µM)	relative viability ([4]; first compound 0.01 µM)	relative viability ([4]; first compound 0.03162 µM)	relative viability ([4]; first compound 0.1 µM)	relative viability ([4]; first compound 0.3162 µM)	relative viability ([4]; first compound 1 µM)
HCC-44	0.743	0.782	0.857	0.676	0.795	0.128	0.198	0.3	0.171	0.294	0.765	0.778	0.854	0.773	0.857	0.911	0.98	1.05	0.856	0.951
HCC-78	–	0.402	0.365	0.405	0.391	–	0.628	0.527	0.631	0.75	0.49	0.419	0.515	0.406	0.394	0.871	0.62	0.743	0.334	0.625
HCC-366	0.126	0.0811	0.081	0.0599	0.0456	0.635	0.601	0.576	0.607	0.505	1.04	0.905	1.08	1.01	1.14	0.731	1.1	0.785	0.945	1.13
HCC-827	0.415	0.392	0.45	0.409	0.391	0.416	0.383	0.447	0.445	0.38	0.842	1.04	1.03	1.09	1.08	0.198	0.189	0.19	0.168	0.201
HOP-62	0.378	0.381	0.363	0.41	0.421	0.683	0.609	0.804	0.722	0.65	0.573	0.598	0.845	0.799	0.769	0.814	1.11	0.854	1.31	0.937
LC-2-ad	0.448	–	0.398	0.371	0.384	0.556	–	0.568	0.585	0.523	0.816	0.992	0.926	0.996	0.93	0.762	1.02	0.874	0.994	0.962
LCLC-97TM1	0.2	0.236	0.246	0.177	0.325	0.424	0.414	0.456	0.456	0.483	0.61	–	0.749	0.741	0.83	0.767	1.13	0.673	1.57	0.715
LOU-NH91	0.607	0.709	0.566	0.681	0.58	0.468	0.364	0.63	0.591	0.744	0.481	0.468	0.506	0.492	0.49	0.781	0.633	0.786	0.563	0.708
LU99A	0.247	0.265	0.297	0.257	0.28	0.762	0.765	0.863	0.884	0.821	1.03	1.12	1.02	1.21	1.07	0.953	1.1	1.05	1.05	0.981
LXF-289	0.168	0.182	0.188	0.189	0.13	0.494	0.522	0.514	0.487	0.487	0.876	0.97	0.966	1.06	0.992	0.757	0.879	0.938	0.929	0.894
NCI-H23	0.404	0.324	0.296	0.253	0.418	0.787	0.711	0.717	0.82	0.779	1.06	1.05	1.14	1.03	1.11	0.889	0.829	1.16	1.19	1.09
NCI-H322M	0.419	0.444	0.478	0.519	0.492	0.63	0.726	0.788	0.854	0.797	1.23	1.11	1.26	1.21	1.17	0.55	0.623	0.573	0.603	0.53
NCI-H460	0.486	0.337	0.395	0.0737	0.113	0.478	0.499	0.511	0.479	0.438	1.03	1	1.2	1.15	1.28	0.996	1.13	0.921	1.05	1.26
NCI-H520	0.372	0.458	0.481	0.514	0.458	0.514	0.538	0.651	0.308	0.559	0.598	–	0.629	0.686	0.774	0.949	–	0.944	0.82	0.917
NCI-H596	0.93	0.968	0.745	0.861	0.746	0.727	0.789	0.733	0.68	0.669	1.09	1.06	1.2	1.01	1.23	1.13	1.2	1.07	1.06	0.911
NCI-H647	0.266	0.29	0.286	0.316	0.222	0.413	0.489	0.5	0.534	0.515	1.03	0.768	1.1	1.05	1.09	0.869	0.919	1.07	1.04	0.994
NCI-H650	0.654	0.646	0.78	0.645	0.727	0.426	0.407	0.476	0.372	0.502	0.82	0.565	0.95	1.08	0.635	0.927	0.859	1.09	1.07	1.1

Cell Line	relative viability ([1]; first compound 0.08 µM)	relative viability ([1]; first compound 0.253 µM)	relative viability ([1]; first compound 0.8 µM)	relative viability ([1]; first compound 2.53 µM)	relative viability ([1]; first compound 8 µM)	relative viability ([2]; first compound 0.08 µM)	relative viability ([2]; first compound 0.253 µM)	relative viability ([2]; first compound 0.8 µM)	relative viability ([2]; first compound 2.53 µM)	relative viability ([2]; first compound 8 µM)	relative viability ([3]; first compound 0.01 µM)	relative viability ([3]; first compound 0.03162 µM)	relative viability ([3]; first compound 0.1 µM)	relative viability ([3]; first compound 0.3162 µM)	relative viability ([3]; first compound 1 µM)	relative viability ([4]; first compound 0.01 µM)	relative viability ([4]; first compound 0.03162 µM)	relative viability ([4]; first compound 0.1 µM)	relative viability ([4]; first compound 0.3162 µM)	relative viability ([4]; first compound 1 µM)
NCI-H661	0.33	0.367	0.353	0.341	0.333	0.281	0.3	0.278	0.285	0.284	0.867	0.74	0.927	0.761	0.585	0.52	0.229	0.566	0.492	0.41
NCI-H727	–	0.582	0.539	0.58	0.458	–	0.376	0.586	0.477	0.4	0.846	0.847	1.02	1.04	0.744	0.923	0.95	0.857	0.914	0.68
NCI-H838	0.229	0.227	0.242	0.234	0.225	0.466	0.521	0.537	0.508	0.51	0.793	0.83	0.965	0.758	0.69	0.808	0.846	0.774	0.794	1.02
NCI-H1355	0.518	0.516	0.428	0.335	0.281	0.343	0.376	0.391	0.429	0.362	0.949	1.3	1.02	1.02	1.06	0.691	0.94	0.807	0.781	0.951
NCI-H1437	0.417	0.465	0.448	0.448	0.407	0.253	0.25	0.309	0.253	0.246	0.468	0.637	0.585	0.577	0.438	0.661	0.755	0.798	0.832	0.728
NCI-H1650	0.531	0.543	0.461	0.363	0.269	0.419	0.328	0.527	0.344	0.245	0.198	0.172	0.186	0.215	0.212	0.607	0.761	0.746	0.774	0.612
NCI-H1651	0.62	0.684	0.561	0.531	0.51	0.346	0.318	0.34	0.33	0.316	0.891	0.941	0.927	0.983	0.944	0.831	0.849	0.829	0.908	0.854
NCI-H1666	0.588	0.56	0.503	0.582	0.436	0.526	0.489	0.547	0.513	0.451	0.71	0.726	0.854	0.555	0.612	0.677	0.657	0.706	0.428	0.557
NCI-H1734	0.25	0.285	0.22	0.246	0.23	0.401	0.353	0.399	0.456	0.38	0.899	0.772	1.01	0.949	0.853	0.915	0.956	1.02	0.85	1
NCI-H1755	0.539	0.608	0.47	0.539	0.394	0.505	0.524	0.566	0.598	0.546	–	0.966	0.832	0.907	0.816	–	0.998	0.711	1.07	0.995
NCI-H1915	0.455	0.442	0.411	0.367	0.404	0.38	0.352	0.371	0.372	0.372	–	0.894	0.805	1.04	0.926	–	1.06	0.678	1.06	0.984
NCI-H1975	0.693	0.654	0.281	0.181	0.179	0.359	0.362	0.383	0.326	0.296	0.378	0.319	0.388	0.319	0.373	0.941	0.876	0.992	0.824	0.828
NCI-H1993	0.543	0.605	0.562	0.617	0.519	0.445	0.601	0.547	0.529	0.48	1.01	–	1.21	1.03	1.03	0.438	–	0.913	0.776	0.678
NCI-H2009	0.737	0.699	0.715	0.823	0.704	0.449	0.482	0.46	0.51	0.347	0.666	1.1	0.887	0.894	0.939	0.567	0.984	0.719	0.834	0.9
NCI-H2023	0.332	0.332	0.321	0.228	0.116	0.41	0.33	0.424	0.423	0.351	0.734	0.967	0.79	0.862	0.879	0.628	0.823	0.73	0.559	0.776
NCI-H2085	0.748	0.744	0.652	0.467	0.421	0.709	0.67	0.723	0.676	0.684	0.87	0.99	1.03	1.27	1.06	0.732	0.736	0.839	0.703	0.664
